The values below come from article PMC12027149 (International Journal of Molecular Sciences, 2025).

Several values for one entry are separate records, joined by “and”; a condition that tells them apart may be missing. Equal entries are not always repeated. Where two headings read alike, the source gives them in different places.

Data set [1] in a line: MTT cytotoxicity assay on differentiated SH-SY5Y cells. The class given is cell-based, human. The note with it: human, 0.05–5 mM; for CC50 at 24 h: differentiated SH-SY5Y, MTT reduction assay, Hill fit, read-out: LC50. As for the experimental part:
(§1) The SH–SY5Y cell line (DSMZ code: ACC 209) was supplied by the German Collection of Microorganisms and the Cell Culture GmbH (DSMZ) biobank and was cultured according to the supplier’s information. Cells were grown in DMEM:F12 (Dulbecco’s Modified Eagle’s Medium/F12), supplemented with 10% fetal bovine serum (FBS) and 1% antibiotic–antimycotic in a humidified atmosphere with 5% CO2 at 37 °C. Subculture was performed according to biobank instructions when the cultures reached 80–85% of confluence.
(§2) SH-SY5Y cells were trypsinized (trypsin/EDTA; 0.25%) and the cell suspension was seeded in 96-well plates at a density of 2 × 10^4 cells/well and incubated until reaching 80-85% confluence. Cells were differentiated to obtain a dopaminergic neuronal phenotype according to Ferreira et al. with slight modifications (Figure 10). To ensure reproducibility and optimal neuronal differentiation, cells were used between passages (15–25). Briefly, cells were seeded in complete DMEM:F12 medium containing 10 µM retinoic acid (RA) and 2.5% fetal bovine serum (FBS) and maintained for 4 days, with the medium changed on day 2. After this time, the medium was replaced by DMEM:F12 supplemented with 10 µM RA, 80 nM 12-O-tetradecanoylphorbol-13-acetate (TPA), and 2.5% FBS, and the cells were maintained for an additional 4 days (with the medium changed at day 6). The cytotoxicity assay was performed on day 8.
(§3) The SH-SY5Y cells’ viability was evaluated after exposure for 24 h to […]. The 3-(4,5-dimethylthiazol-2-yl) − 2,5-diphenyltetrazolium bromide (MTT) colorimetric assay was performed following the methodology described by Joana Silva et al.. The experimental dose–response results were fitted to the Hill’s sigmoidal non-linear regression model. For each cathinone, the LC50 values (cathinone concentration showing 50% lethality) and their confidence interval at the 95% confidence level ([CI]) were determined. The Hill slope, also known as the Hill coefficient, which describes the steepness of a dose–response curve, and the minimum observable adverse effect concentration (LOAEL) were also determined for all cathinones.

The subject of data set [2] is differentiated SH-SY5Y cells. The description is as above. As to conditions: lowest observed adverse effect level, differentiated SH-SY5Y, 24 h, MTT. The data set is classed as cell-based, human. As for the experimental part: as §1, §2, §3
Data set [3] has as its target T1, Acetylcholinesterase (AChE, EC 3.1.1.7) (Electrophorus electricus, UniProt O42275).
T1 construct: purchased Sigma-Aldrich
Put plainly: Acetylcholinesterase inhibition, modified Ellman colorimetric method. The class given is biochemical. The note with it: for Hillslope: AChE inhibition dose–response curve; for LOAEL / IC50: Ellman assay; for IC50: 0.03–2 mM, Hill fit; for maximum inhibition of AChE among the tested concentrations: 0.03 to 2 mM. As for the experimental part:
Acetylcholinesterase (AChE, EC 3.1.1.7) enzymatic activity was assessed using a modified version of Ellman’s colorimetric method, as described by Falé et al.. In this assay, a mixture of 325 μL of 50 mM Tris-HCl buffer (pH 8), 100 μL of a cathinone solution, and 25 μL of AChE (0.1 U/mL in 50 mM Tris–HCl buffer pH 8) were incubated. After a 15 min incubation period, 75 μL of AChI (0.33 mg/mL) was added to 475 μL of DTNB (dithiobis (2-nitrobenzoic acid)) (1.2 mg/mL in Tris–HCl buffer (pH 8) containing 0.1 M NaCl and 0.02 M MgCl2). A control reaction, representing 100% activity, was performed using the same volume of water instead of the cathinone solution. The initial velocity of the enzymatic reaction was measured at 405 nm for 5 min, with all assays carried out in duplicate. The percentage of AChE activity inhibition for different concentrations of cathinones [0.03–2 mM] was determined as the ratio of the initial velocity in the cathinone presence to the initial velocity of the control reaction. Experimental results were fitted to Hill’s sigmoidal dose–response non-linear regression model to determine IC50 values (cathinone concentration showing 50% inhibition), along with their confidence interval at the 95% confidence level ([CI]). The Hill slope coefficients that provide the steepest value of the slope of the dose–response curve and the minimum observable adverse effect concentration (LOAEL) for all cathinones were also determined.

T1 sequence (O42275 24-633): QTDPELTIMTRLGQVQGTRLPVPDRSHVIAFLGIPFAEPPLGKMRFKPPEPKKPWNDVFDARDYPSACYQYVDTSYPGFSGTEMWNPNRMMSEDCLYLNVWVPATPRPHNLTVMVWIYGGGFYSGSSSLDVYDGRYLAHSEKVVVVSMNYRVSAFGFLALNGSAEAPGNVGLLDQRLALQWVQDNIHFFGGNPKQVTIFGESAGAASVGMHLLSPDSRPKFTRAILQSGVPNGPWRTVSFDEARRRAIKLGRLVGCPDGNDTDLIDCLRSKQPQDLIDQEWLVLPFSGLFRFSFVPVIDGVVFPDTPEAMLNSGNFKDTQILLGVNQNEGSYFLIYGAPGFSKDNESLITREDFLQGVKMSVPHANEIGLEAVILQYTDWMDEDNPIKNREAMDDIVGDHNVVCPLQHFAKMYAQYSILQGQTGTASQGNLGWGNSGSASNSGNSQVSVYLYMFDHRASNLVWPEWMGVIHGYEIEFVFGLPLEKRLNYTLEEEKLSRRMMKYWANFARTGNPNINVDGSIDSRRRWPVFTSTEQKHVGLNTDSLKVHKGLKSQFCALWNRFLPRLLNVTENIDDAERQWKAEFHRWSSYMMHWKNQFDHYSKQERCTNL

As a reminder, the LOAEL is the lowest dose or exposure tested at which an adverse effect was seen. As usually defined, the IC50 is the concentration that inhibits the measured activity by half. On to `CC(C(=O)c1ccc(Cl)cc1)N1CCCC1` (racemic) [4-Cl-PPP (11), (R,S)-1-(4-chlorophenyl)-2-(pyrrolidine-1-yl)propan-1-one], for which the CC50 at 24 h in data set [1] stood at 1800 µM. Further, the lowest-observed-adverse-effect level (LOAEL) was determined as 0.5 mM in data set [2] and 0.250 mM in data set [3] (AChE inhibition). In data set [3], the Hillslope came out at 1.1. Further, the half-maximal inhibitory concentration (IC50) in data set [3] (IC50, AChE inhibition) amounted to 500 µM.

In the case of `CNC(C)C(=O)c1ccccc1Cl` (racemic) [2-CMC (1), (R,S)-1-(2-chlorophenyl)-2-(methylamino)propan-1-one], the CC50 at 24 h in data set [1] was 1700 µM. Moreover, the LOAEL in data set [2] was 1 mM and 1.0 mM; in data set [3] (AChE inhibition), 0.250 mM. Moreover, the Hillslope in data set [3] came out at 2.5. In data set [3] (IC50, AChE inhibition), the concentration for half-maximal inhibition (IC50) came to 700 µM.

Turning to `CC(C(=O)c1ccccc1Cl)N1CCCC1` (racemic) [2-Cl-PPP (9), (R,S)-1-(2-chlorophenyl)-2-(pyrrolidine-1-yl)propan-1-one], the CC50 at 24 h in data set [1] was 1600 µM. Besides, the lowest-observed-adverse-effect level (LOAEL) is reported as 0.5 mM in data set [2] and 0.125 mM in data set [3] (AChE inhibition). Further, the “maximum inhibition of AChE among the tested concentrations” value in data set [3] was found to be 81%. This compound registered a Hillslope in data set [3] of 1.5. The compound also yielded a 50% inhibitory concentration (IC50) in data set [3] (IC50, AChE inhibition) of 300 µM.

In the case of `CC(C(=O)c1ccc(Cl)cc1)N(C)C` (racemic) [4-CDC (14), (R,S)-1-(4-chlorophenyl)-2-(dimethylamino)propan-1-one], the CC50 at 24 h in data set [1] is 1500 µM. The lowest-observed-adverse-effect level (LOAEL) in data set [2] is 1 mM and 1.0 mM; in data set [3] (AChE inhibition), 0.500 mM and 0.50 mM. In addition, the Hillslope in data set [3] stood at 2.9. Moreover, the IC50 in data set [3] (IC50, AChE inhibition) was determined as 700 µM.

With `CCNC(C)C(=O)c1cccc(Cl)c1` (racemic) [3-CEC (5), (R,S)-1-(3-chlorophenyl)-2-(ethylamino)propan-1-one], in data set [1], the CC50 at 24 h worked out at 1300 µM. Moreover, the values for the LOAEL in data set [2] and in data set [3] (AChE inhibition) were 0.5 mM and 0.250 mM, respectively. The compound further registered a Hillslope in data set [3] of 1.3. In data set [3] (IC50, AChE inhibition), inhibition was half-maximal at 800 µM (IC50).

For `CCNC(C)C(=O)c1ccc(Cl)cc1` (racemic) [4-CEC (6), (R,S)-1-(4-chlorophenyl)-2-(ethylamino)propan-1-one], the CC50 at 24 h in data set [1] worked out at 1300 µM. Further, the values for the lowest-observed-adverse-effect level (LOAEL) in data set [2] and in data set [3] (AChE inhibition) were 0.1 mM and 0.250 mM, respectively. This compound showed a Hillslope in data set [3] of 1.2. Moreover, the IC50 in data set [3] (IC50, AChE inhibition) is 1200 µM.

For the compound `CC(NC(C)(C)C)C(=O)c1cccc(Cl)c1` (racemic) [3-Cl-TBC (19), (R,S)-2-(tert-butylamino)-1-(3-chlorophenyl)propan-1-one], in data set [1], the CC50 at 24 h is 1000 µM. In addition, the LOAEL in data set [2] is given as 0.5 mM; in data set [3] (AChE inhibition) it was 0.250 mM. The Hillslope in data set [3] worked out at 0.9. In addition, the IC50 in data set [3] (AChE inhibition, read-out: IC50) is 1000 µM.

For the compound `CNC(C)C(=O)c1ccc(C)cc1` (centres unmarked) [Mephedrone (M), Mephedrone, reference compound], the Emax at 24 h in data set [1] (MTT, read-out: maximum response (cytotoxicity)) is 73%. Further, in data set [1], the CC50 at 24 h was found to be 2100 µM. Besides, the LOAEL in data set [2] came to 0.5 mM; in data set [3] (AChE inhibition), 0.750 mM. In data set [3], the Hillslope is listed as 8.6. In data set [3] (IC50, AChE inhibition), this compound returned a half-maximal inhibitory concentration (IC50) of 800 µM.

By inhibition is commonly meant the relative decrease from the control value, in per cent. Higher therefore signals a strong effect. `CNC(C)C(=O)c1ccc(Cl)cc1` (racemic) [4-CMC (3), (R,S)-1-(4-chlorophenyl)-2-(methylamino)propan-1-one]: the CC50 at 24 h in data set [1] was 1300 µM. In addition, the results for the lowest-observed-adverse-effect level (LOAEL) in data set [2] and in data set [3] (AChE inhibition) were 0.1 mM and 0.250 mM, respectively. This compound also returned a Hillslope in data set [3] of 1.5. In addition, the IC50 in data set [3] (IC50, AChE inhibition) is about 2000 µM. Besides, the inhibition at 2000 µM in data set [3] (highest tested concentration of 2 mM) amounted to 47%.

Take `CC(C(=O)c1ccccc1Cl)N(C)C` (racemic) [2-CDC (12), (R,S)-1-(2-chlorophenyl)-2-(dimethylamino)propan-1-one]: the CC50 at 24 h in data set [1] was found to be 1300 µM. Besides, the lowest-observed-adverse-effect level (LOAEL) in data set [2] was 1 mM and 1.0 mM; in data set [3] (AChE inhibition) it was 0.250 mM. In data set [3], the Hillslope is recorded as 2.5. Also, the IC50 in data set [3] (IC50, AChE inhibition) was found to be 700 µM.

Consider `CC(C(=O)c1cccc(Cl)c1)N(C)C` (racemic) [3-CDC (13), (R,S)-1-(3-chlorophenyl)-2-(dimethylamino)propan-1-one], for which the CC50 at 24 h in data set [1] came out at 1800 µM. The LOAEL in data set [2] is 1 mM and 1.0 mM; in data set [3] (AChE inhibition), 0.250 mM. Moreover, the Hillslope in data set [3] was 1.2. For the same compound, in data set [3] (IC50, AChE inhibition), the IC50 stood at 900 µM.

`CCNC(C)C(=O)c1ccccc1Cl` (racemic) [2-CEC (4), (R,S)-1-(2-chlorophenyl)-2-(ethylamino)propan-1-one]: the CC50 at 24 h in data set [1] turned out to be 1600 µM. Also, the LOAEL in data set [2] was determined as 0.5 mM; in data set [3] (AChE inhibition), 0.500 mM. In addition, the “maximum inhibition of AChE among the tested concentrations” value in data set [3] is 85%. In data set [3], the Hillslope amounted to 4.3. The compound further displayed a concentration for half-maximal inhibition (IC50) in data set [3] (IC50, AChE inhibition) of 600 µM.

As to `CC(C)NC(C)C(=O)c1cccc(Cl)c1` (racemic) [3-CIC (17), (R,S)-1-(3-chlorophenyl)-2-(isopropylamino)propan-1-one], the CC50 at 24 h in data set [1] was 1600 µM. For the same compound, the LOAEL in data set [2] is 1 mM and 1.0 mM; in data set [3] (AChE inhibition), 0.063 mM. In addition, the Hillslope in data set [3] is 0.8. The compound also had a 50% inhibitory concentration (IC50) in data set [3] (IC50, AChE inhibition) of 200 µM.

For the compound `CC(C(=O)c1cccc(Cl)c1)N1CCCC1` (racemic) [3-Cl-PPP (10), (R,S)-1-(3-chlorophenyl)-2-(pyrrolidine-1-yl)propan-1-one], in data set [1], the CC50 at 24 h came to 2500 µM. The LOAEL was found to be 0.1 mM in data set [2] and 0.125 mM in data set [3] (AChE inhibition). Moreover, the Hillslope in data set [3] was found to be 1.8. The midpoint of inhibition in data set [3] (IC50, AChE inhibition), the IC50, lay at 400 µM.

For the compound `CC(C)NC(C)C(=O)c1ccc(Cl)cc1` (racemic) [4-CIC (18), (R,S)-1-(4-chlorophenyl)-2-(isopropylamino)propan-1-one], in data set [1], the CC50 at 24 h was determined as 1400 µM. In addition, the LOAEL in data set [2] is 1 mM and 1.0 mM; in data set [3] (AChE inhibition), 0.375 mM. Moreover, in data set [3], the Hillslope is given as 2.0. For the same compound, in data set [3] (IC50, AChE inhibition), half-maximal inhibition (IC50) required 1100 µM.

Turning to `CCN(CC)C(C)C(=O)c1ccc(Cl)cc1` (racemic) [4-Cl-DEC (16), (R,S)-1-(4-chlorophenyl)-2-(diethylamino)propan-1-one], in data set [1], the CC50 at 24 h was determined as 1000 µM. Moreover, the LOAEL in data set [2] was 1 mM and 1.0 mM; in data set [3] (AChE inhibition) it was 0.063 mM. In data set [3], this compound gave a Hillslope of 0.8. Besides, the IC50 in data set [3] (IC50, AChE inhibition) was found to be 100 µM.

Regarding `CNC(C)C(=O)c1cccc(Cl)c1` (racemic) [3-CMC (2), (R,S)-1-(3-chlorophenyl)-2-(methylamino)propan-1-one], the CC50 at 24 h in data set [1] is 2300 µM. The LOAEL in data set [2] was 1 mM and 1.0 mM; in data set [3] (AChE inhibition) it was 0.500 mM. Further, in data set [3], the Hillslope was determined as 3.7. Besides, the midpoint of inhibition in data set [3] (IC50, AChE inhibition), the IC50, lay at 800 µM.
